Here are results for one molecule from US9724262B2, “Methods of diagnosing and treating neonatal reversion to fetal consciousness” (The Regents of the University of California, priority 2013, dated 2017).

Data set [1] can be described thus: Plasma steroid and hormone concentrations (LC-MS) in the foal infused with allopregnanolone. In kind it is in vivo, Quarter Horse. The method, then:
(§1) Intravenous catheters were placed aseptically in the right jugular vein for sample collection and in the left jugular vein for infusion of allopregnanolone. Allopregnanolone (5 alpha-pregnan-3 alpha-ol-20-one; Steraloids Inc., Newport, R.I., USA) was dissolved in an ethanol-based solution to a total concentration of 9 mg/ml. Infused dose and concentration of allopregnanolone in this foal were determined based on concentrations reported in in vivo studies in the modulation of the HPA axis in male rats (Naert, et al., (2007) Psychoneuroendocrinology 32, 1062-1078). An initial bolus of 0.05 mg/kg bwt i.v. of allopregnanolone was given followed by a constant rate infusion (CRI) of 0.02 mg/kg bwt/min using an infusion pump. Based on clinical effects of the initial dosage, a second bolus of 0.1 mg/kg bwt i.v. was given after 5 min and followed by a CRI of 0.04 mg/kg bwt/min for 5 min. The infusion was discontinued for 30 min to allow observation of any neurobehavioural (NB) alterations, and then a final bolus of 0.2 mg/kg bwt i.v. was given.
Heparinised blood samples were collected at birth, age 6 h and at 15 min intervals during the infusion. Blood was immediately centrifuged following collection and plasma stored at −80° C. until analysed by liquid chromatography mass spectrometry (LC-MS) utilising on-line sample extraction by turbulent flow chromatography (TFC) and detection by select reaction monitoring (SRM) on a triple quadrupole mass spectrometer. […] Free concentrations of 34 steroids were monitored in one analytical method over a 24-min run time. Detection and quantitation was accomplished using 3 or more SRM transitions per compound for all compounds other than 17-hydroxy pregnenolone where single ion monitoring (SIM) was utilised. This method was validated and the following assessed for each analyte: linearity, limit of detection, limit of quantitation, accuracy, precision, matrix effects, extraction recovery and potential endogenous interferences. […]

Another data set relates to healthy neonatal foal. In words: Neurobehavioural (NB) scoring of a healthy neonatal foal infused i.v. with allopregnanolone. In kind it is in vivo, Quarter Horse. The method, then:
A healthy neonatal 50 kg Quarter Horse colt from the research herd at the School of Veterinary Medicine, University of California, Davis was selected for the infusion. The foal was born from a healthy Quarter Horse mare with a normal gestational length without complications, and normal observed parturition except that the placental passage was prolonged. Although retention of the placenta for 7 h post birth is not considered normal by most standards, the placenta was evaluated and determined to be complete and normal. […] The foal was deemed healthy based upon complete physical and neurological examinations immediately post birth. […] Repeat physical and neurological examinations at age 6 h, immediately prior to infusion, were also normal.
as §1
Neurobehavioural alterations were recorded and graded through a NB scoring system developed by the authors for the assessment of foals with NMS (Table 2). From preliminary work, foals with NMS had scores>8 from a range of 0 (normal foal) to 20 (comatose with paroxysmal activity). Mentation was defined as: normal if the foal was alert and responsive; quiet to obtunded if the foal was apparently lethargic but responsive to external stimuli (e.g., touch, sound); stuporous if level of consciousness was decreased but responsive to painful stimuli (e.g. pinching skin with haemostats); and comatose if the foal lost consciousness and was unresponsive to any stimuli. Paroxysmal activity was defined as abnormal events such as seizures or seizure-like activity, rhythmic limb movements, tremors or paddling. The NB scores were calculated at 5 min intervals throughout the infusion period. Following the infusion, the foal was observed hourly for the first 6 h and then at 12 h intervals for 2 days.
For NB comparison, a second age-matched clinically healthy neonatal Quarter Horse colt was infused with 99.9% ethanol diluted with 0.9% saline to a final concentration of 5% ethanol without allopregnanolone. Infusion of this solution followed the same protocol (dosage [based on 5% ethanol] and rate) of administration as for the first foal. The study was approved by an Animal Care and Use protocol from University of California, Davis.

[2] abbreviates: age 6 ½ h, 15 minutes post initial infusion.

Structures are written as SMILES. Bounds are passed on as bounds.

Regarding `CC(=O)[C@H]1CC[C@H]2[C@@H]3CC[C@H]4C[C@H](O)CC[C@]4(C)[C@H]3CC[C@]12C` [allopregnanolone, 5 alpha-pregnan-3 alpha-ol-20-one], the Allopregnanolone plasma concentration is given as 478,909 pg/mL in data set [1] (age 6 ¼ h, bolus 0.05 mg/kg IV, CRI 0.02 mg/kg/min); 126,566 pg/mL in data set [1] (setting [2]); 466,208 pg/mL in data set [1] (age 6 ¾ h, bolus 0.2 mg/kg IV). In addition, in the data set with healthy neonatal foal (after cessation of the infusion), the “Time after cessation of the infusion to signs of increased responsiveness” value is recorded as at most 8 min. Also, the Neurobehavior score was 14 in the data set with healthy neonatal foal (age 6 ¼ h, bolus 0.05 mg/kg IV, CRI 0.02 mg/kg/min, score scale 0-20); 8 with healthy neonatal foal (setting [2]); 15 in the data set with healthy neonatal foal (age 6 ¾ h, bolus 0.2 mg/kg IV). Also, the NB score is reported as 9 in the data set with healthy neonatal foal (by 15 min after cessation of the infusion or the final bolus, standing, mild obtundation); 0 with healthy neonatal foal (by 30 min after infusion, foal appeared normal); 16 in the data set on healthy neonatal foal (infusion of higher concentrations (0.1 and 0.2 mg/kg bwt), foal recumbent, stuporous, unresponsive). Also, in the data set with healthy neonatal foal (observed hourly for 6 h, then at 12 h intervals for 2 days), the “Long-term NB effects following the infusion” value is reported as “No long-term NB effects were observed”.
